Patent publication US9435738B2, “System and device for characterizing cells” (The Johns Hopkins University, priority 2011, dated 2016)

Tested on: Mouse myoblasts (c2c12)
Experiment: microscopy-based assay measuring cell cycle phase and cell/nuclear properties simultaneously in the same cells
Details: for cell cycle phase enriched / blocked by treatment: cell-cycle distribution vs control cells; for contribution to changes in nuclear size due to (uncontrolled) intrinsic changes in nuclear size in each phase / contribution to changes in nuclear size due to forced cell-cycle redistribution: population-averaged nuclear size, Eq. 2, FIG. 36 B; for time after release at which asynchronized (untreated) cell cycle distribution is recovered: release from synchronizing drug
Method: For each type of cell, ˜10,000 cells were plated on a glass bottom dish (World Precision Instruments, Sarasota, Fla.). After incubation for 48 h, the treatment for synchronization was applied. To serum-starve cells, cells were washed three times with Hanks' balanced salt solution (HBSS) (GBICO) and cultured in serum-free medium for 72 h. For synchronization at early S phase, cells were treated with 2 mM of thymidine for 18 h twice. Between these two treatments, cells were rinsed with HBSS three times and cultured in normal growth medium to release cell cycle for 9 h. To synchronize cells in the M phase, cells were first treated with 2 mM of thymidine for 24 h. Followed by rinsing with HBSS three times, cells were released with normal growth medium for 3 h. After the short release, cells were treated with 100 ng/ml of microtubule-depolymerizing drug nocodazole for 12 h.
Cells were fixed with 3.7% of formaldehyde (Sigma) for 15 min at room temperature (RT). After fixation, cells were permeabilized with 0.1% Triton X-100 (Sigma) for 10 min and blocked for nonspecific binding with phosphate-buffered saline (PBS) supplemented with 10% of goat serum for 30 min. Cells were incubated with specific concentration of dye diluted from stock solution for 1 h. Nuclear DNA was stained with Hoechst 33342 (Sigma) at 1:40 dilution, Cytoplasm was stained with HCS CellMask Cy5 (Invitrogen) at 1:20000 dilution. Actin was stained with Phalloidin 488 (Invitrogen) at 1:40 dilution. PBS rinse was conducted three times between each step.
Fluorescent images were collected with a Nikon DS-QiMc camera installed on a customized Nikon TE300 microscope with a 10× Plan Fluor lens (N.A. 0.3, Nikon Melville, N.Y.), a motorized stage, and motorized excitation and emission filters (Prior Scientific, Rockland, Mass.) controlled by Nikon NIS Elements. Eighty-one (9-by-9 grid) fields of views were consistently generated using the software Nikon NIS-Elements. The size of the image acquired from the camera was 1280×1024 pixels, and the pixel size was 0.57 μm for a 10× objective. Our ΔX and ΔY for image capture was 662 μm and 520 μm respectively to allow 10% overlay between adjacent fields. The total size of the scanning region (81 images) was ˜28.5 mm^2. Four different channels (UV, GFP, Cy5, and phase contrast) were collected for every field of view. The calibration glass-bottom dish contained dyes for three different fluorescent channels, UV, GFP, and Cy5. For each fluorescence channel, UV, GFP, and Cy5, two calibration images were acquired: with and without illumination. The calibration images were used to reduce the non-uniform illumination of fluorescent images. All of the phenotypic information was calculated with a custom high throughput program (written in Matlab) developed in our laboratory. Typically >1,000 cells were analyzed per different biological repeat (i.e. different cells) for a total >3,000 cells for each tested condition.
To precisely segment individual cells and nuclei, we used slightly different approaches based on the same principle. For nuclear segmentation, because of the relatively circular shape and relatively even intensity of the Hoechst stain, we filtered calibrated images (as described in the previous section) with a 23×23 pixel normalized Gaussian filter (similar scale as the size of nuclei) and an averaging filter (same size) to obtain IG (Gaussian intensity) and IM (averaged intensity). Subtracting IM from IG gives IN, the nuclear intensity values without regional background.
Because cells are larger than their nuclei, a larger size of filters was needed. However, one major limitation with spatial domain image filters is non-continuous edges. Increasing the size of the filter increases the size of this “non-trustable” region. The use of a spatial filter 2r+1 in size will lead to the loss of r+1 pixels from the edge because of incomplete information, which greatly reduces the usable image size. […]

Structure (SMILES)	increase in mean cell size in the G2/M phase compared to untreated (asynchronized) cells in the same phase	cell cycle phase enriched / blocked by treatment	change in measured cell properties caused by synchronization (compared phase-to-phase to control cells)	contribution to changes in nuclear size due to (uncontrolled) intrinsic changes in nuclear size in each phase	contribution to changes in nuclear size due to forced cell-cycle redistribution	time after release at which asynchronized (untreated) cell cycle distribution is recovered	decrease in nuclear size of cells in the G0/G1 phase (10 nM for 24 h, G0/G1 phase, P<0.0001)	decrease in population-averaged cell size / nuclear size (10 nM for 24 h, population-averaged, accompanied by rounding of the nucleus)	time after release during which cell properties continued to be affected (after removing inhibitor)	increase in mean size of cells in the G0/G1 phase compared to untreated (asynchronized) cells in the same phase (G0/G1 phase)	mean size of treated cells in the S phase relative to mean size of untreated cells in the S phase (S phase)	increase in mean size of cells in the S phase compared to untreated cells in the same phase (S phase, after forced synchronization)
COC(=O)Nc1nc2ccc(C(=O)c3cccs3)cc2[nH]1 [nocodazole]	75%	M phase	> 30%	41%	35%	24 h						
CCNc1cc(N[C@H]2CC[C@H](O)CC2)nc(Nc2ccc3c(ccn3Cc3ccccc3)c2)n1 [Cdk4/6 inhibitor IV, trans-4-((6-(ethylamino)-2-((1-(phenylmethyl)-1H-indol-5-yl)amino)-4-pyrimidinyl)amino)-cyclohexanol]		blocked cells in the G0/G1 phase					> 50%	~50%	up to 6 h			
Cc1cn([C@H]2C[C@H](O)[C@@H](CO)O2)c(=O)[nH]c1=O [thymidine]	220%	S phase		91%	9%	24 h				130%	2.2 times	120%
